In US20260138973A1, “SUBSTITUTED PYRIDINES FOR USE IN TREATING OR PREVENTING INFLAMMATORY DISEASES OR DISEASES ASSOCIATED WITH AN UNDESIRABLE IMMUNE RESPONSE” (SITRYX THERAPEUTICS LIMITED, priority 2022, published 2026):
Where a name gives a salt, the structure may show the parent alone. Read-outs that look alike come from different tables or passages of the source.

Tests used:
[1] = Hepatocyte stability assay, human; format: in vitro ADME; details: cryopreserved hepatocytes; Human hepatocytes, 10 μM compound, 0.5×10^6 cells/mL; read-out: T½
Source text: (§1) Defrosted cryo-preserved hepatocytes (viability >70%) were used to determine the metabolic stability of a compound via calculation of intrinsic clearance (Clint; a measure of the removal of a compound from the liver in the absence of blood flow and cell binding). Clearance data are particularly important for in vitro work as they can be used in combination with in vivo data to predict the half-life and oral bioavailability of a drug.
(§2) The metabolic stability in hepatocytes assay involves a time-dependent reaction using both positive and negative controls. The cells were pre-incubated at 37° C. then spiked with test compound (and positive control); samples were taken at pre-determined time intervals and were analysed to monitor the change in concentration of the initial drug compound over 60 minutes. A buffer incubation reaction (with no hepatocytes present) acted as a negative control and two cocktail solutions, containing compounds with known high and low clearance values (verapamil/7-hydroxycoumarin and propranolol/diltiazem), acted as positive controls. • 1. The assay was run with a cell concentration of 0.5×10^6 cells/mL in Leibovitz buffer. • 2. All compounds and controls were run in duplicate. • 3. Compound concentration was 10 μM. • 4. All compounds and controls were incubated with both cells and buffer to show turnover was due to hepatic metabolism. • 5. All wells on the incubation plate had 326.7 μL of either cells or buffer added. • 6. Prior to assay, cell and buffer-only incubation plates were preincubated for 10 mins at 37° C. • 7. The assay was initiated by adding compounds, 3.3 μL of 1 mM in 10% DMSO-90% Buffer; final DMSO concentration was 0.1%. • 8. Samples were taken at regular timepoints (0, 5, 10, 20, 40, 60 min) until 60 mins. • 9. Sample volume was 40 μL and was added to 160 μL of crash solvent (acetonitrile with internal standard) and stored on ice. • 10. At the end of the assay, the crash plates were centrifuged at 3500 rpm for 20 mins at 4° C. • 11. 80 μL of clear supernatant was removed and mixed with 80 μL of deionised water before being analysed by LC-MS/MS.
(§3) Raw LC-MS/MS data was exported to, and analysed in, Microsoft Excel for determination of intrinsic clearance. The percentage remaining of a compound was monitored using the peak area of the initial concentration as 100%. Intrinsic clearance and half-life values were calculated using a graph of the natural log of percentage remaining versus the time of reaction in minutes. Half-life (min) and intrinsic clearance (Clint in μL min^−1 10^−6 cells) values were calculated using the gradient of the graph (the elimination rate constant, k) and Equations 1 and 2.

[2] = system: hepatocytes; assay: Hepatocyte stability assay, human; format: in vitro ADME
Source text: as §1, §2, §3

[3] = system: IL-1β; assay: THP-1 AlphaLISA IL-1β cytokine inhibition assay (differentiated THP-1 cells, LPS then nigericin); format: cell-based; details: for IC50: THP-1 cell, PMA-differentiated, LPS 24 hr + nigericin 1 hour; for effectiveness in the IL-1β assay: THP-1 cells, result in words
Protocol: Measuring Inhibitory Effects on IL-1β Cytokine Output from THP-1s
The cytokine inhibition profiles of compounds of formula (I) were determined in a differentiated THP-1 cell assay. All assays were performed in RPMI-1640 growth medium (Gibco), supplemented with 10% fetal bovine serum (FBS; Gibco), 1% penicillin-streptomycin and 1% sodium pyruvate unless specified otherwise. The IL-1β cytokine inhibition assay was run in a background of differentiated THP-1 cells as described below. All reagents described were from Sigma-Aldrich unless specified otherwise. Compounds were prepared as 10 mM DMSO stocks.
THP-1 cells were expanded as a suspension up to 80% confluence in appropriate growth medium. Cells were harvested, suspended, and treated with an appropriate concentration of phorbol 12-myristate 13-acetate (PMA) over a 72 hr period (37° C./5% CO2).
Following 72 hrs of THP-1 cell incubation, cellular medium was removed and replaced with fresh growth media containing 1% of FBS. Working concentrations of compounds were prepared separately in 10% FBS treated growth medium and pre-incubated with the cells for 30 minutes (37° C./5% CO2). Following the 30 minute compound pre-incubation, THP-1s were treated with an appropriate concentration of LPS and the cells were subsequently incubated for a 24 hr period (37° C./5% CO2). An appropriate final concentration of Nigericin was then dispensed into the THP-1 plates and incubated for 1 hour (37° C./5% CO2) before THP-1 supernatants were harvested and collected in separate polypropylene 96-well holding plates.
Reagents from an IL-1β and IL-6 commercial kit (Perkin Elmer) were prepared and run according to the manufacturer's instructions. Subsequently, fluorescence signal detection in a microplate reader was measured (EnVision® Multilabel Reader, Perkin Elmer).
Percentage inhibition was calculated per cytokine by normalising the sample data to the high and low controls used within each plate (+/−LPS respectively). Percentage inhibition was then plotted against compound concentration and the 50% inhibitory concentration (IC50) was determined from the resultant concentration-response curve.

[4] = system: NRF2; assay: DiscoverX PathHunter NRF2 translocation assay +/-GSH in U2OS cells; format: cell-based; details: for EC50: U2OS PathHunter cells, 6 hours, read-out: NRF2 activation EC50; for NRF2 activation Emax: normalised to DMF high control
Protocol: Potency and efficacy of compounds of formula (I) against the target of interest to activate NRF2 (nuclear factor erythroid 2-related factor 2) were determined using the PathHunter NRF2 translocation kit (DiscoverX). The NRF2 translocation assay was run using an engineered recombinant cell line, utilising enzyme fragment complementation to determine activation of the Keap1-NRF2 protein complex and subsequent translocation of NRF2 into the nucleus. Enzyme activity was quantified using a chemiluminescent substrate consumed following the formation of a functional enzyme upon PK-tagged NRF2 translocation into the nucleus.
The assay was run under both +/−GSH (glutathione) conditions to determine the sensitivity of the compounds' NRF2-activating abilities to attenuation by GSH.
Additionally, a defined concentration of DMF was used as the ‘High’ control to normalise test compound activation responses to.
U2OS PathHunter express cells were thawed from frozen prior to plating. Following plating, U2OS cells were incubated for 24 hrs (37° C./5% CO2) in commercial kit provided cell medium.
Following 24 hrs of U2OS incubation, cells were directly treated with an appropriate final concentration of compound, for −GSH conditions or, for +GSH conditions, an intermediate plate containing 6× working concentrations of compound stocks was prepared in a 6 mM working concentration of GSH solution (solubilised in sterile PBS). Following a 30 minute compound-GSH pre-incubation (37° C./5% CO2) for +GSH treatment, plated U2OS cells were incubated with an appropriate final concentration of compound and GSH.
Following compound (+/−GSH) treatment, the U2OS plates were incubated for a further 6 hours (37° C./5% CO2) before detection reagent from the PathHunter NRF2 commercial kit was prepared and added to test plates according to the manufacturer's instructions. Subsequently, the luminescence signal detection was measured in a microplate reader (PHERAstar®, BMG Labtech).
Percentage activation was calculated by normalising the sample data to the high and low controls used within each plate (+/−DMF). Percentage activation/response was then plotted against compound concentration and the 50% activation concentration (EC50) was determined from the plotted concentration-response curve.

[5] = system: hepatocytes; assay: Hepatocyte stability assay, mouse; format: in vitro ADME; details: 10 μM compound, 0.5×10^6 cells/mL
Source text: as §1, §2, §3

[6] = system: IL-6; assay: THP-1 AlphaLISA IL-6 cytokine inhibition assay (differentiated THP-1 cells, LPS then nigericin); format: cell-based; details: THP-1 cell, PMA-differentiated, LPS 24 hr + nigericin 1 hour
Protocol: The cytokine inhibition profiles of compounds of formula (I) were determined in a differentiated THP-1 cell assay. All assays were performed in RPMI-1640 growth medium (Gibco), supplemented with 10% fetal bovine serum (FBS; Gibco), 1% penicillin-streptomycin and 1% sodium pyruvate unless specified otherwise. The IL-1β cytokine inhibition assay was run in a background of differentiated THP-1 cells as described below. All reagents described were from Sigma-Aldrich unless specified otherwise. Compounds were prepared as 10 mM DMSO stocks. THP-1 cells were expanded as a suspension up to 80% confluence in appropriate growth medium. Cells were harvested, suspended, and treated with an appropriate concentration of phorbol 12-myristate 13-acetate (PMA) over a 72 hr period (37° C./5% CO2). Following 72 hrs of THP-1 cell incubation, cellular medium was removed and replaced with fresh growth media containing 1% of FBS. Working concentrations of compounds were prepared separately in 10% FBS treated growth medium and pre-incubated with the cells for 30 minutes (37° C./5% CO2). […] Subsequently, fluorescence signal detection in a microplate reader was measured (EnVision® Multilabel Reader, Perkin Elmer). Percentage inhibition was calculated per cytokine by normalising the sample data to the high and low controls used within each plate (+/−LPS respectively).

[7] = Hepatocyte stability assay, mouse; format: in vitro ADME; details: cryopreserved hepatocytes, 10 μM compound, 0.5×10^6 cells/mL, read-out: T½
Source text: as §1, §2, §3

[8] = Human hepatocytes, 10 μM compound, 0.5×10^6 cells/mL

| Compound | half-life at 10 μM [1] [min] | Clint [2, 8] [μL min^−1 10^−6 cells] | IC50 ([3]; Homo sapiens) [µM] | EC50 ([4]; +GSH) [µM] | NRF2 activation Emax ([4]; +GSH) [%] | EC50 ([4]; −GSH) [µM] | NRF2 activation Emax ([4]; −GSH) [%] | Clint [5] [μL min^−1 10^−6 cells] | T½ [2, 8] [min] | IC50 [6] [µM] | IC50 [3] [µM] | T½ [5] [min] | effectiveness in the IL-1β assay [3] | stability (intrinsic clearance and half-life) compared to 4-octyl itaconate and 2-(2-chlorobenzyl)acrylic acid ([2]; mouse and/or human cells, result in words) | half-life at 10 μM [7] [min] | IC50 ([6]; Homo sapiens) [µM] |
| --- | --- | --- | --- | --- | --- | --- | --- | --- | --- | --- | --- | --- | --- | --- | --- | --- |
| C=C(Cc1ccccc1Cl)C(=O)O [2-(2-chlorobenzyl)acrylic acid, reference compound] | 59 | 21 | > 100 | > 100 | 9 | > 100 | 2 | 95 |  |  |  |  |  |  |  |  |
| C=C(CC(=O)OCCCCCCCC)C(=O)O [4-octyl itaconate, reference compound] |  | 401 |  | 28.9 | 148 | 22.1 | 165 | 351 | 4 | 19.1 | 37.8 | 4 |  |  |  |  |
| C=C(Cc1nc(-c2ccc(OCCCC)nc2)no1)C(=O)O [Example 1, 2-((3-(6-butoxypyridin-3-yl)-1,2,4-oxadiazol-5-yl)methyl)acrylic acid] |  |  | > 100 | 19.5 | 130 | 20.8 | 192.5 |  |  |  |  |  | not effective |  |  |  |
| C=C(Cc1nc(-c2ccc(OCCCC)cn2)no1)C(=O)O [Example 2, 2-((3-(5-butoxypyridin-2-yl)-1,2,4-oxadiazol-5-yl)methyl)acrylic acid] |  |  | > 100 |  |  |  |  |  |  |  |  |  | not effective |  |  |  |
| C=C(Cc1nc(-c2ncc(OCCCC)cc2Cl)no1)C(=O)O [Example 3, 2-((3-(5-butoxy-3-chloropyridin-2-yl)-1,2,4-oxadiazol-5-yl)methyl)acrylic acid] | 181 | 7.18 | 2.09 | 11.4 | 78.58 | 22.7 | 172.5 | 133 |  |  |  |  |  | more stable | 9.27 |  |
| C=C(Cc1nc(-c2ncc(Oc3ccc(F)cc3)cc2Cl)no1)C(=O)O [Example 4, 2-((3-(3-chloro-5-(4-fluorophenoxy)pyridin-2-yl)-1,2,4-oxadiazol-5-yl)methyl)acrylic acid] |  |  | 2.12 | 15.5 | 145 | 7.07 | 208.56 |  |  |  |  |  |  |  |  |  |
| COC(=O)/C=C/C(=O)O [monomethyl fumarate, reference compound] |  |  | > 100 |  |  |  |  |  |  |  |  |  |  |  |  | > 100 |
